Reference: patent US7618964B2, “Benzamide derivatives, their manufacture and use as pharmaceutical agents” (Hoffmann-La Roche Inc., priority 2004, dated 2009)

Columns and labels:
[1] = biological target: T1, Src (p60^c-src, partially purified) (Homo sapiens, UniProt P12931); experiment: SRC-Inhibitor-Assay (time-resolved fluorescence kinase assay), Src; type: biochemical; conditions: ATP 5 μM, peptide 10 μM, enzyme 2.5 U/ml, pre-incubated 15 min at 15° C.
T1 construct: purchased UBI, Upstate Biotech, Inc
T1 sequence (P12931 whole entry, species assumed): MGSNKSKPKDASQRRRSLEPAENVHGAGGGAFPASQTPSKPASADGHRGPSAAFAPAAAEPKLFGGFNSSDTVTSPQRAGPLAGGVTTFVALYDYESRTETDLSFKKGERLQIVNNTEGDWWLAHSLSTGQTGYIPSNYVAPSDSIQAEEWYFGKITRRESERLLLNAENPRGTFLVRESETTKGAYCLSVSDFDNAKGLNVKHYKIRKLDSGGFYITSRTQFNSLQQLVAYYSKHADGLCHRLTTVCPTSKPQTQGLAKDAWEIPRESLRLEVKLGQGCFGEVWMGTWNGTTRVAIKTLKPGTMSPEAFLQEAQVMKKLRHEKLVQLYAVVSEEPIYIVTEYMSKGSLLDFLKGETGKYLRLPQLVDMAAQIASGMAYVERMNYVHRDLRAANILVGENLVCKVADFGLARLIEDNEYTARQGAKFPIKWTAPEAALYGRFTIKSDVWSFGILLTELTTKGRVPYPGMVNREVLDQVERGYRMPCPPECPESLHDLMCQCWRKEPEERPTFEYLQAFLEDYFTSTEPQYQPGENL
Source text: (§1) The activity of the compounds according to this invention as inhibitors for the src-family tyrosine kinases was shown by using the following assay.
(§2) SRC-Inhibitor-Assay Parameters:
(§3) Time-resolved Fluorescence Assay: Reader: Perkin Elmer, Wallac Viktor 1420-040 multilabel counter; Liquid handling system: Beckman Coulter, Biomek 2000.
(§4) ATP, Tween™ 20, 4-(2-hydroxyethyl)-1-piperazineethanesulfonic acid (HEPES) were purchased from Roche Molecular Biochemicals, MgCl2 and MnCl2 were purchased from Merck Eurolab, Tris(2-carboxyethyl)phosphine hydrochloride (TCEP) was purchased from Pierce, 384 Well low volume fluorescence plates was purchased from Falcon.
(§5) At first the enzyme is pre-incubated for 15 min. at 15° C. in aqueous solution with corresponding amounts of inhibitors according to this invention. Then the phosphorylation reaction is started by adding a reaction mixture, containing ATP, Peptide and PT66, and subsequent shaking. The proceeding of this reaction is immediately monitored using time resolved fluorescence spectroscopy in a suitable well plate reader.
(§6) The IC50-values can be obtained from the reaction rates by using a non-linear curve fit (XLfit software (ID Business Solution Ltd., Guilford, Surrey, UK))

[2] = biological target: T2, Lck (p56^lck, active) (Homo sapiens, UniProt P06239); experiment: SRC-Inhibitor-Assay (time-resolved fluorescence kinase assay), Lck; type: biochemical; conditions: ATP 5 μM, peptide 10 μM, enzyme 2.5 U/ml, pre-incubated 15 min at 15° C.
T2 construct: purchased UBI, Upstate Biotech, Inc
T2 sequence (P06239 whole entry, species assumed): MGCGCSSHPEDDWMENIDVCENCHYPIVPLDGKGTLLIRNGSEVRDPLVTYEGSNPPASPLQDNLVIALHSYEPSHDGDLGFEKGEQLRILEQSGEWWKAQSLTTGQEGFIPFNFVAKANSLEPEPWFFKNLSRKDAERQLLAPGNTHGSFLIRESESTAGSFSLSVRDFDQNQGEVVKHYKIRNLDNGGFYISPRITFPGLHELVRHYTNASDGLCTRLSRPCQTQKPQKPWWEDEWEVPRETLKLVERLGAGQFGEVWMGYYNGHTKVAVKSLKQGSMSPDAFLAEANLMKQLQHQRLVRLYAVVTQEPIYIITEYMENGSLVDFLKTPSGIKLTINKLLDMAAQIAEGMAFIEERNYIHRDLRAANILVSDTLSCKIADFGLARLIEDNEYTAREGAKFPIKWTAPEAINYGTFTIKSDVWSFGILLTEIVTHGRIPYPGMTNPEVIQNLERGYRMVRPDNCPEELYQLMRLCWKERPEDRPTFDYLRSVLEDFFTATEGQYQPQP
Source text: as §1, §2, §3, §4, §5, §6

IC50 [1] [nM] | IC50 [2] [nM] | SMILES
21 | 481 | O=C(Nc1cnc2[nH]c(-c3ccccc3)nc2c1)c1ccccc1Cl [Example 1-1, 2-Chloro-N-(2-phenyl-3H-imidazo[4,5-b]pyridin-6-yl)-benzamide]
5 to 300 | 40 to 9000 | COc1cc(OC)cc(C(=O)Nc2cnc3[nH]c(-c4ccccc4)cc3c2)c1 [Example 12-12, 3,5-Dimethoxy-N-(2-phenyl-1H-pyrrolo[2,3-b]pyridine-5-yl)-benzamide]
5 to 300 | 40 to 9000 | COCC(COC)NC(=O)c1cccc(-c2nc3cc(NC(=O)c4ccccc4Cl)cnc3[nH]2)c1 [Example 6-3, 2-Chloro-N-(2-{3-[2-methoxy-1-methoxymethyl-ethylcarbamoyl]-phenyl}-3H-imidazo[4,5-b]pyridin-6-yl)-benzamide]
5 to 300 | 40 to 9000 | Cc1cccc(Cl)c1C(=O)Nc1cnc2[nH]c(-c3ccccc3)nc2c1 [Example 1-2, 2-Chloro-6-methyl-N-(2-phenyl-3H-imidazo[4,5-b]pyridin-6-yl)-benzamide]
5 to 300 | 40 to 9000 | O=C(Nc1cnc2[nH]c(-c3cccs3)nc2c1)c1ccccc1Cl [Example 4-6, 2-Chloro-N-(2-thiophen-2-yl-3H-imidazo[4,5-b]pyridin-6-yl)-benzamide]
300 to 3500 | 1000 to 9000 | Cc1ccc([N+](=O)[O-])cc1C(=O)Nc1cnc2[nH]c(-c3ccccc3)nc2c1 [Example 1-4, 2-Methyl-5-nitro-N-(2-phenyl-3H-imidazo[4,5-b]pyridin-6-yl)-benzamide]
5 to 300 | 40 to 9000 | COCCC(=O)Nc1cccc(-c2nc3cc(NC(=O)c4ccccc4Cl)cnc3[nH]2)c1 [Example 1-7, 2-Chloro-N-{2-[3-(3-methoxy-propionylamino)-phenyl]-3H-imidazo[4,5-b]pyridin-6-yl}-benzamide]
5 to 300 | 40 to 9000 | O=C(Nc1cnc2[nH]c(-c3ccccc3)nc2c1)c1ccccc1Br [Example 1-3, 2-Bromo-N-(2-phenyl-3H-imidazo[4,5-b]pyridin-6-yl)-benzamide]
135 | 160 | Cc1ccc(N)cc1C(=O)Nc1cnc2[nH]c(-c3ccccc3)nc2c1 [Example 2-1, 5-Amino-2-methyl-N-(2-phenyl-3H-imidazo[4,5-b]pyridin-6-yl)-benzamide]
5 to 300 | 40 to 9000 | Cc1ccc(-c2nc3cc(NC(=O)c4ccccc4Cl)cnc3[nH]2)cn1 [Example 7-2, 2-Chloro-N-[2-(6-methyl-pyridin-3-yl)-3H-imidazo[4,5-b]pyridine-6-yl]-benzamide]
5 to 300 | 40 to 9000 | O=C(Nc1cnc2[nH]c(-c3ccc(N4CCOCC4)nc3)nc2c1)c1ccccc1Cl [Example 7-7, 2-Chloro-N-[2-(6-morpholin-4-yl-pyridin-3-yl)-3H-imidazo[4,5-b]pyridine-6-yl]-benzamide]
300 to 3500 | 1000 to 9000 | O=C(Nc1cnc2[nH]c(-c3ccccc3)nc2c1)c1cc([N+](=O)[O-])ccc1Cl [Example 1-5, 2-Chloro-5-nitro-N-(2-phenyl-3H-imidazo[4,5-b]pyridin-6-yl)-benzamide]

The remaining lines, values behind:

SMILES | IC50 [1] [nM] | IC50 [2] [nM]
O=C(Nc1cnc2[nH]c(-c3ccccc3)cc2c1)c1ccccc1Cl [Example 12-1, 2-Chloro-N-(2-phenyl-1H-pyrrolo[2,3-b]pyridine-5-yl)-benzamide] | 5 to 300 | 40 to 9000
CCN(CC)CCOc1ccc(-c2nc3cc(NC(=O)c4ccccc4Cl)cnc3[nH]2)cc1 [Example 4-1, 2-Chloro-N-{2-[4-(2-diethylamino-ethoxy)-phenyl]-3H-imidazo[4,5-b]pyridin-6-yl}-benzamide] | 5 to 300 | 40 to 9000
O=C(Nc1cnc2[nH]c(-c3ccccc3)nc2c1)c1ccccc1 [Example 1-6, N-(2-Phenyl-3H-imidazo[4,5-b]pyridin-6-yl)-benzamide] | 5 to 300 | 40 to 9000
O=C(Nc1cnc2[nH]c(-c3ccsc3)nc2c1)c1ccccc1Cl [Example 4-7, 2-Chloro-N-(2-thiophen-3-yl-3H-imidazo[4,5-b]pyridin-6-yl)-benzamide] | 5 to 300 | 40 to 9000
Nc1cccc(-c2nc3cc(NC(=O)c4ccccc4Cl)cnc3[nH]2)c1 [Example 10-1, N-[2-(3-Amino-phenyl)-3H-imidazo[4,5-b]pyridine-6-yl]-2-chloro-benzamide] | 5 to 300 | 40 to 9000
COCCOc1ccc(-c2cc3cc(NC(=O)c4ccccc4OC)cnc3[nH]2)cc1 [Example 12-14, 2-Methoxy-N-{2-[4-(2-methoxy-ethoxy)-phenyl]-1H-pyrrolo[2,3-b]pyridin-5-yl}-benzamide] | 5 to 300 | 40 to 9000
Cc1ccccc1C(=O)Nc1cnc2[nH]c(-c3ccccc3)cc2c1 [Example 12-7, 2-Methyl-N-(2-phenyl-1H-pyrrolo[2,3-b]pyridine-5-yl)-benzamide] | 5 to 300 | 40 to 9000
COCCN(CCOC)c1ccc(-c2nc3cc(NC(=O)c4ccccc4Cl)cnc3[nH]2)cc1F [Example 13-1, N-(2-{4-[Bis-(2-methoxy-ethyl)-amino]-3-fluoro-phenyl}-3H-imidazo[4,5-b]pyridin-6-yl)-2-chloro-benzamide] | 5 to 300 | 40 to 9000
O=C(Nc1cnc2[nH]c(-c3ccc(N4CCOCC4)cc3)nc2c1)c1ccccc1Cl [Example 4-5, 2-Chloro-N-[2-(4-morpholin-4-yl-phenyl)-3H-imidazo[4,5-b]pyridin-6-yl]-benzamide] | 7 | 49
O=C(Nc1cnc2[nH]c(-c3ccc4[nH]cnc4c3)nc2c1)c1ccccc1Cl [Example 7-5, N-[2-(1H-Benzoimidazol-5-yl)-3H-imidazo[4,5-b]pyridine-6-yl]-2-chloro-benzamide] | 5 to 300 | 40 to 9000
CN1CCN(c2ccc(-c3nc4cc(NC(=O)c5ccccc5Cl)cnc4[nH]3)cc2)CC1 [Example 4-8, 2-Chloro-N-{2-[4-(4-methyl-piperazin-1-yl)-phenyl]-3H-imidazo[4,5-b]pyridin-6-yl}-benzamide] | 5 to 300 | 40 to 9000
C[S+]([O-])c1cccc(-c2nc3cc(NC(=O)c4ccccc4Cl)cnc3[nH]2)c1 (centres unmarked) [Example 9-1, 2-Chloro-N-[2-(3-methanesulfinyl-phenyl)-3H-imidazo[4,5-b]pyridine-6-yl]-benzamide] | 5 to 300 | 40 to 9000
O=C(Nc1cnc2[nH]c(-c3ccccc3)cc2c1)c1ccc(Cl)cc1Cl [Example 12-4, 2,4-Dichloro-N-(2-phenyl-1H-pyrrolo[2,3-b]pyridine-5-yl)-benzamide] | 5 to 300 | 40 to 9000
CSc1cccc(-c2nc3cc(NC(=O)c4ccccc4Cl)cnc3[nH]2)c1 [Example 7-3, 2-Chloro-N-[2-(3-methylsulfanyl-phenyl)-3H-imidazo[4,5-b]pyridine-6-yl]-benzamide] | 5 to 300 | 40 to 9000
Cc1cccc(Cl)c1C(=O)Nc1cnc2[nH]c(-c3ccccc3)cc2c1 [Example 12-5, 2-Chloro-6-methyl-N-(2-phenyl-1H-pyrrolo[2,3-b]pyridine-5-yl)-benzamide] | 5 to 300 | 40 to 9000
Nc1ccc(Cl)c(C(=O)Nc2cnc3[nH]c(-c4ccccc4)nc3c2)c1 [Example 3-1, 5-Amino-2-chloro-N-(2-phenyl-3H-imidazo[4,5-b]pyridin-6-yl)-benzamide] | 5 to 300 | 40 to 9000
COCCCNc1cc(-c2nc3cc(NC(=O)c4ccccc4Cl)cnc3[nH]2)ccn1 [Example 14-1, 2-Chloro-N-{2-[2-(3-methoxy-propylamino)-pyridin-4-yl]-3H-imidazo[4,5-b]pyridin-6-yl}-benzamide] | 5 to 300 | 40 to 9000
CC(=O)Nc1cccc(-c2nc3cc(NC(=O)c4ccccc4Cl)cnc3[nH]2)c1 [Example 11-1, N-[2-(3-Acetylamino-phenyl)-3H-imidazo[4,5-b]pyridine-6-yl]-2-chloro-benzamide] | 5 to 300 | 40 to 9000
COCCOc1ccc(-c2nc3cc(NC(=O)c4ccccc4Cl)cnc3[nH]2)cc1 [Example 4-2, 2-Chloro-N-{2-[4-(2-methoxy-ethoxy)-phenyl]-3H-imidazo[4,5-b]pyridin-6-yl}-benzamide] | 5 to 300 | 40 to 9000
